The assay has as its system MCF7. The assay can be described thus: Ratio of colchicine IC50 to compound IC50 for human MCF7 cells by SRB assay. The format is functional. In general terms: Sulforhodamine B stains cellular protein and so reports cell mass.

Take `COc1ccc2c(c1)Oc1ncn(N)c(=N)c1C2c1ccc(Cl)cc1` (mixture of isomers): the “Ratio IC50” value amounted to 1.5.

Take `CCOc1ccc2c(c1)Oc1ncn3nc(-c4ccc(OC)cc4)nc3c1C2c1ccc(Cl)cc1` (racemic): the “Ratio IC50” value was 1.5.

In the case of `COc1ccc2c(c1)Oc1ncn(C)c(=N)c1C2c1ccc(Cl)cc1` (racemic), the “Ratio IC50” value was 2.

`CCOC(=O)c1nc2c3c(ncn2n1)Oc1cc(OCC)ccc1C3c1ccc(Cl)cc1` (racemic): the “Ratio IC50” value is listed as 2.

On to `COc1ccc(-c2nc3c4c(ncn3n2)Oc2cc(OC)ccc2C4c2ccc(Cl)cc2)cc1` (racemic), for which the “Ratio IC50” value amounted to 1.5.

The values are drawn from ChEMBL document CHEMBL2311259, “Synthesis of novel chromene derivatives of expected antitumor activity” (Eur J Med Chem, 2013).
